Results taken from patent US20210040089A1, “KRAS MUTANT PROTEIN INHIBITORS” (Jacobio Pharmaceuticals Co., Ltd., priority 2019, published 2021).

What was measured:
KRAS G12C = biological target: T1, KRAS G12C (Homo sapiens, UniProt P01116, G12C); experiment: SOS1 catalyzed nucleotide exchange assay (TR-FRET); type: biochemical; settings: GDP-loaded HIS-KRAS(G12C), 1 hour pre-incubation with compound
T1 construct: HIS-KRAS (G12C, aa 2-185, Sino biological); purchased Sino biological
Method in brief: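 EDTA-stripped, GDP-loaded His-KRAS G12C (aa 2-185; 3 nM final) preincubated 1 h with compound, then SOS1 ExD (aa 564-1049; 2 μM) and BODIPY-FL GTP (80 nM) added for 4 h at 25 °C. TR-FRET via anti-His Tb cryptate (515/486 nm ratio); IC50 from 4-parameter logistic fit.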

[1] = test system: Phospho-ERK1/2(THR202/TYR204) in NCI-H358 cells express KRAS G12C; experiment: Phospho-ERK1/2(THR202/TYR204) HTRF assay; type: cell-based; settings: Homo sapiens; NCI-H358, 2 hours incubation; read-out: p-ERK inhibition in NCI-H358 IC50
Method in brief: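 Compounds applied to attached cells for 2 h at 37 °C in RPMI 1640 with 0.1% FBS. Lysate phospho-ERK1/2 detected by HTRF after 4 h antibody incubation at 25 °C; IC50 from 4-parameter logistic fit.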

[2] = test system: NCI-H358 cells express KRAS G12C; experiment: Cell growth inhibition assay (CCK-8); type: cell-based; settings: Homo sapiens, 144 h; NCI-H358, 6 days incubation
Method in brief: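 Antiproliferative read-out: KRAS G12C-mutant NCI-H358 lung cancer cells (3000/well) exposed to compounds in RPMI 1640 with 10% FBS for 6 days at 37°C. Viability by CCK-8 (OD450) after 1.5-2 h; IC50 from 4-parameter logistic fit.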

T1 sequence (P01116 2-185 isoform P01116-2 G12C): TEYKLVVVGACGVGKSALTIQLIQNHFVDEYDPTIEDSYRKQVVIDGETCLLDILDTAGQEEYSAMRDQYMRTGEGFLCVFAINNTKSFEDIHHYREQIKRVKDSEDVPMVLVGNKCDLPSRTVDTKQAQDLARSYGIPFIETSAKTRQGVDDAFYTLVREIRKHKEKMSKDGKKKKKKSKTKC

Compound	IC50 (KRAS G12C) [nM]	IC50 [1] [nM]	IC50 [2] [nM]
C=CC(=O)N1CCN(c2nc(OCC3(CN(C)C)CC3)nc3c2CCN(c2cccc(C)c2C)C3)CC1CC#N (stereo not drawn) [Compound 48, 2-(1-acryloyl-4-(2-((1-((dimethylamino)methyl)cyclopropyl)methoxy)-7-(2,3-dimethylphenyl)-5,6,7,8-tetrahydropyrido[3,4-d]pyrimidin-4-yl)piperazin-2-yl)acetonitrile]	3.31	66	94.9
C=CC(=O)N1CCN(c2nc(OCC3(CN4CC[C@@H](F)C4)CC3)nc3c2CCN(c2cccc4cccc(C)c24)C3)CC1CC#N (stereo partly drawn) [Compound 49, 2-(1-acryloyl-4-(2-((1-(((R)-3-fluoropyrrolidin-1-yl)methyl)cyclopropyl)methoxy)-7-(8-methylnaphthalen-1-yl)-5,6,7,8-tetrahydropyrido[3,4-d]pyrimidin-4-yl)piperazin-2-yl)acetonitrile]	3.12	38.4	64.2
C=CC(=O)N1CCN(c2nc(OCC3(CN(C)C)CC3)nc3c2CCN(c2cccc4ccsc24)C3)CC1CC#N (stereo not drawn) [Compound 50, 2-(1-acryloyl-4-(7-(benzo[b]thiophen-7-yl)-2-((1-((dimethylamino)methyl)cyclopropyl)methoxy)-5,6,7,8-tetrahydropyrido[3,4-d]pyrimidin-4-yl)piperazin-2-yl)acetonitrile]	8.66	83.8	202
C=CC(=O)N1CCN(c2nc(OCC3(CN(C)C)CC3)nc3c2CCN(c2cccc4sccc24)C3)CC1CC#N (stereo not drawn) [Compound 51, 2-(1-acryloyl-4-(7-(benzo[b]thiophen-4-yl)-2-((1-((dimethylamino)methyl)cyclopropyl)methoxy)-5,6,7,8-tetrahydropyrido[3,4-d]pyrimidin-4-yl)piperazin-2-yl)acetonitrile]	3.28	77.1	99.9
C=CC(=O)N1CCN(c2nc(OCC3(CN(C)C)CC3)nc3c2CCN(c2cccc4ncsc24)C3)CC1CC#N (stereo not drawn) [Compound 54, 2-(1-acryloyl-4-(7-(benzo[d]thiazol-7-yl)-2-((1-((dimethylamino)methyl)cyclopropyl)methoxy)-5,6,7,8-tetrahydropyrido[3,4-d]pyrimidin-4-yl)piperazin-2-yl)acetonitrile]	82.8	> 500	> 1000
C=CC(=O)N1CCN(c2nc(OC(C)C3(CN(C)C)CC3)nc3c2CCN(c2cccc4cccc(C)c24)C3)CC1CC#N (stereo not drawn) [Compound 57, 2-(1-acryloyl-4-(2-(1-(1-((dimethylamino)methyl)cyclopropyl)ethoxy)-7-(8-methylnaphthalen-1-yl)-5,6,7,8-tetrahydropyrido[3,4-d]pyrimidin-4-yl)piperazin-2-yl)acetonitrile]	28.1	296	522
C=CC(=O)N1CCN(c2nc(OCC3(CN4CCN(C)CC4)CC3)nc3c2CCN(c2cccc4cccc(C)c24)C3)CC1CC#N (stereo not drawn) [Compound 58, 2-(1-acryloyl-4-(7-(8-methylnaphthalen-1-yl)-2-((1-((4-methylpiperazin-1-yl)methyl)cyclopropyl)methoxy)-5,6,7,8-tetrahydropyrido[3,4-d]pyrimidin-4-yl)piperazin-2-yl)acetonitrile]	1.47	44.3	36.9
C=CC(=O)N1CCN(c2nc(OCC3(CN4CC(N(C)C)C4)CC3)nc3c2CCN(c2cccc4cccc(C)c24)C3)CC1CC#N (stereo not drawn) [Compound 59, 2-(1-acryloyl-4-(2-((1-((3-(dimethylamino)azetidin-1-yl)methyl)cyclopropyl)methoxy)-7-(8-methylnaphthalen-1-yl)-5,6,7,8-tetrahydropyrido[3,4-d]pyrimidin-4-yl)piperazin-2-yl)acetonitrile]	1.1	57.2	61.9
C=CC(=O)N1CCN(c2nc(OCC3(CN4CCCC4)CC3)nc3c2CCN(c2cccc4cccc(Cl)c24)C3)CC1CC#N (stereo not drawn) [Compound 61, 2-(1-acryloyl-4-(7-(8-chloronaphthalen-1-yl)-2-((1-(pyrrolidin-1-ylmethyl)cyclopropyl)methoxy)-5,6,7,8-tetrahydropyrido[3,4-d]pyrimidin-4-yl)piperazin-2-yl)acetonitrile]	1.44	16.2	25.1
C=CC(=O)N1CCN(c2nc(OCC3(CN4CC(F)C4)CC3)nc3c2CCN(c2cccc4cccc(C)c24)C3)CC1CC#N (stereo not drawn) [Compound 62, 2-(1-acryloyl-4-(2-((1-((3-fluoroazetidin-1-yl)methyl)cyclopropyl)methoxy)-7-(8-methylnaphthalen-1-yl)-5,6,7,8-tetrahydropyrido[3,4-d]pyrimidin-4-yl)piperazin-2-yl)acetonitrile]	2.34	43	66.9
C=CC(=O)N1CCN(c2nc(OCC3(C(=O)N4CCN(C)CC4)CC3)nc3c2CCN(c2cccc4cccc(C)c24)C3)CC1CC#N (stereo not drawn) [Compound 63, 2-(1-acryloyl-4-(7-(8-methylnaphthalen-1-yl)-2-((1-(4-methylpiperazine-1-carbonyl)cyclopropyl)methoxy)-5,6,7,8-tetrahydropyrido[3,4-d]pyrimidin-4-yl)piperazin-2-yl)acetonitrile]	30.9	533	861
C=CC(=O)N1CCN(c2nc(OCC3(CN(C)CCN(C)C)CC3)nc3c2CCN(c2cccc4cccc(C)c24)C3)CC1CC#N (stereo not drawn) [Compound 64, 2-(1-acryloyl-4-(2-((1-(((2-(dimethylamino)ethyl)(methyl)amino)methyl)cyclopropyl)methoxy)-7-(8-methylnaphthalen-1-yl)-5,6,7,8-tetrahydropyrido[3,4-d]pyrimidin-4-yl)piperazin-2-yl)acetonitrile]	1.69	124	74.5
C=CC(=O)N1CCN(c2nc(OCC3(CN4CC[C@H](N(C)C)C4)CC3)nc3c2CCN(c2cccc4cccc(C)c24)C3)CC1CC#N (stereo partly drawn) [Compound 65, 2-(1-acryloyl-4-(2-((1-(((S)-3-(dimethylamino)pyrrolidin-1-yl)methyl)cyclopropyl)methoxy)-7-(8-methylnaphthalen-1-yl)-5,6,7,8-tetrahydropyrido[3,4-d]pyrimidin-4-yl)piperazin-2-yl)acetonitrile]	1.46	87.8	32.8
C=CC(=O)N1CCN(c2nc(OCC3(CN4CCN(C(C)=O)CC4)CC3)nc3c2CCN(c2cccc4cccc(C)c24)C3)CC1CC#N (stereo not drawn) [Compound 66, 2-(4-(2-((1-((4-acetylpiperazin-1-yl)methyl)cyclopropyl)methoxy)-7-(8-methylnaphthalen-1-yl)-5,6,7,8-tetrahydropyrido[3,4-d]pyrimidin-4-yl)-1-acryloylpiperazin-2-yl)acetonitrile]	1.46	13.6	25.1
Cc1cccc2cccc(N3CCc4c(nc(OCC5(CN(C)C)CC5)nc4N4CCN(C(=O)/C=C/CO)C(CC#N)C4)C3)c12 (stereo not drawn) [Compound 69, (E)-2-(4-(2-((1-((dimethylamino)methyl)cyclopropyl)methoxy)-7-(8-methylnaphthalen-1-yl)-5,6,7,8-tetrahydropyrido[3,4-d]pyrimidin-4-yl)-1-(4-hydroxybut-2-enoyl)piperazin-2-yl)acetonitrile]	2.73	157	77.6
